# Molecular target: T1, apo-D-amino acid oxidase (Sus scrofa, UniProt P00371)
# T1 construct: Apo-D-amino acid oxidase extracted and purified from the porcine kidneys is known and can be suitably used; purchased Calzyme Inc. 176A0025
# Experiment: Comparison of reactivity between various D-amino acids as substrates of FAD-reactivated apo-D-amino acid oxidase (peroxidase/DA-64 colorimetric, Hitachi 7170)
# Assay type: biochemical, porcine
# Settings: 5 mM D-amino acid in reagent 1, 50 mM Tris-HCl pH 8.3; 10 U/ml apo-D-amino acid oxidase, FAD sample; 700 nm; D-valine = 100
# Procedure: Reagent 1 containing 50 mM Tris-HCl (pH 8.3), 5 mM DA-64 (Wako Pure Chemical Industries), and 5 mM D-amino acid, reagent 2 containing 10 U/ml apo-D-amino acid oxidase (Calzyme Inc., Catalog No. 176A0025) and 5 U/ml peroxidase, and aqueous FAD solution as a sample were applied to a Hitachi 7170 automated analyzer at a setting of two-point end-mode and using a parameters of 7 μl for a sample, 180 μl for R1, 90 μl for R2, and 700 nm for a wavelength for determination.
# As in 1), the activity of the reconstituted apoenzyme was confirmed. Assays only varying types of the D-amino acids were then performed. As D-amino acids, D-forms of Ala, Met, Val, Ile, Phe, Pro, Ser, Thr, Asn, Leu, Tyr, Trp, Asp, Glu, His, and Arg were each used. The percent reactivities of the above-mentioned various D-amino acids were calculated to the value of D-valine which was defined as 100.
# T1 sequence (P00371 whole entry): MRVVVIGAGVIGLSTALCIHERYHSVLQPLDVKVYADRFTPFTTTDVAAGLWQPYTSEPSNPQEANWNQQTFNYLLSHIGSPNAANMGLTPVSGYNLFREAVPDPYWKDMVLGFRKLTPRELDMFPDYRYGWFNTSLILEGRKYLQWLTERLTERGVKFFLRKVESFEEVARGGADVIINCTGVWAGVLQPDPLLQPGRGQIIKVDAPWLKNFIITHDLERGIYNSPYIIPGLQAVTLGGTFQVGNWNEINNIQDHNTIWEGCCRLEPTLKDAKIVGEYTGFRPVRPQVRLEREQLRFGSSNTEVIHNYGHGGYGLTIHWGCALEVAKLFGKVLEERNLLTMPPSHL
row,Compound,percent reactivity of D-amino acid (relative to D-valine defined as 100) [%]
1,NC(N)=NCCCC(N)C(=O)O [D-Arg],8
2,CC[C@@H](C)[C@@H](N)C(=O)O [D-Ile],178
3,N[C@H](Cc1ccccc1)C(=O)O [D-Phe],170
4,N[C@H](Cc1c[nH]c2ccccc12)C(=O)O [D-Trp],14
5,"CC(C)[C@@H](N)C(=O)O [D-Val, D-valine]",100
6,"O=C(O)[C@H]1CCCN1 [D-Pro, D-proline]",374
7,CC(C)C[C@@H](N)C(=O)O [D-Leu],97
8,"N[C@H](Cc1ccc(O)cc1)C(=O)O [D-Tyr, D-tyrosine]",159
9,N[C@H](CO)C(=O)O [D-Ser],117
10,CSCC[C@@H](N)C(=O)O [D-Met],322
11,C[C@@H](N)C(=O)O [D-Ala],136
